# Test results taken from US6498254B1, “Antiretroviral compounds and compositions” (Uniroyal Chemical Company, Inc., priority 2001, dated 2002).
# Where two headings read alike, the source gives them in different places.
# What was measured:
# [1] = tested on: HIV-1 (IIIB); assay: Inhibition of HIV-1 syncytium formation in CEM cells; assay type: cell-based; details: for EC50: read-out: EC50 (μg/ml) HIV-1; for HIV-1 % Protection: protection of CEM cells against virus-induced cytopathicity at the compound concentration in the previous column
# Description: (§1) The cell type used to determine activity of the compounds of the invention herein, i.e., the test compounds, against HIV was human T-lymphoblast (CEM) cells obtained from the American Tissue Cell Culture Collection (Rockville, Md.). HIV-1 (IIIB) was originally obtained from the culture of persistently HIV-1 infected H9 cells and was provided by R. C. Gallo and M. Popovic (National Cancer Institute, National Institutes of Health, Bethesda, Md.). HIV-2 (ROD) was originally obtained from L. M. Montagnier (Pasteur Institute, Paris, France).
# (§2) To determine the antiviral activity of the test compounds, CEM cells were suspended at a cell density of approximately 300,000 cells per ml of culture medium and infected with approximately 100 CClD50 (100 CClD50 being the 50% cell culture infective dose) of HIV-1 (IIIB) or HIV-2 (ROD)). Then 100 μl of the infected cell suspensions was added to 200 μl micro titer plate wells containing 100 μl of appropriate serial (5-fold) dilutions of the test compounds. The inhibitory effect of the test compounds on HIV-1 or HIV-2 syncytium formation in CEM cells was examined microscopically on day four post infection. The 50% effective concentration (EC50) was defined as the test compound concentration that inhibits syncytium formation in the HIV-1 or HIV-2 infected cell cultures by 50%.
# (§3) In some cases, the compounds had considerable cytotoxicity to CEM cells which made determination of the EC50 difficult. In these cases, the percent protection of the cells against virus-induced cytopathicity by the test compounds at the indicated compound concentration in the previous column is given.
# [2] = tested on: HIV-2 (ROD); assay: Inhibition of HIV-2 syncytium formation in CEM cells; assay type: cell-based; details: for EC50: Human immunodeficiency virus 2, CCRF-CEM, read-out: EC50 (μg/ml) HIV-2; for HIV-2 % Protection: protection of CEM cells against virus-induced cytopathicity at the compound concentration in the previous column
# Description: as §1, §2, §3
# [3] = tested on: CMV Davis strain; assay: Activity against HCMV: virus-induced cytopathicity in HEL cells; assay type: cell-based, human cytomegalovirus (HCMV); details: for IC50: read-out: Antiviral IC50 (μg/ml) Davis strain; for Antiviral % Inhibition Davis strain: estimate of percent protection of HEL cells at the compound concentration
# Experimental: Confluent HEL cells grown in […] microtiter plates were inoculated with CMV at an input of 100 PFU (plaque forming units) per well. After a one to two hour incubation period, residual virus was removed and the infected cells were further incubated with MEM (Minimal Essential Medium) (supplemented with 2% inactivated Fetal Calf Serum (FCS), […], and 0.3% sodium bicarbonate) containing varying concentrations of the test compounds. Antiviral activity was expressed as EC50 (50% effective concentration), or test compound concentration required to reduce virus-induced cytopathicity after seven days by 50% compared to the untreated control.
# In some cases, the compounds had considerable cytotoxicity against HEL cells, which made determination of the EC50's difficult. In these cases, an estimate of the percent protection at the compound concentration indicated in the previous columns is given.
# [4] = Human immunodeficiency virus 1, IIIB, CCRF-CEM
# [5] = Human betaherpesvirus 5, HEL, 168 h
# [6] = CMV-infected HEL cells, virus-induced cytopathicity after seven days
# [7] = Human immunodeficiency virus 1, CCRF-CEM, HIV-1 (IIIB) infected CEM cells, syncytium formation, day four post infection
# [8] = HIV-2 (ROD) infected CEM cells, syncytium formation, day four post infection
# [9] = Human betaherpesvirus 5, 168 h, CMV-infected HEL cells, virus-induced cytopathicity after seven days
# [10] = HIV-1 (IIIB) infected CEM cells, syncytium formation, day four post infection
Compound,"EC50 [1, 4] [µg/mL]",HIV-1 % Protection [1] [%],EC50 [2] [µg/mL],HIV-2 % Protection [2] [%],"IC50 [3, 5] [µg/mL]","Antiviral IC50 (μg/ml) Davis strain [3, 6] [µg/mL]",Antiviral % Inhibition Davis strain [3] [%],"EC50 [1, 7] [µg/mL]","EC50 [2, 8] [µg/mL]","IC50 [3, 9] [µg/mL]","EC50 (μg/ml) HIV-1 [1, 10] [µg/mL]","EC50 (μg/ml) HIV-2 [2, 8] [µg/mL]"
"Cc1ccc(C)c(CSc2cccc[n+]2C)c1 [Compound 142, 2[[(2,5-dimethylphenyl)methyl]thio]-1-methylpyridinium chloride]",> 4,0.0,> 4,0.0,3.4,,,,,,,
"1,4-xylyl-bis-2-sulfonyl pyridine-N-oxide [Compound 23]",,37.5,,37.5,,>20,20.0,,,,,
"COc1cc(C=C(C#N)Sc2cccc[n+]2[O-])cc(OC)c1OC [Compound 160, 2-[1-cyano-2-(3,4,5-trimethoxyphenyl)ethenethio]pyridine-N-oxide]",> 20,0.0,> 20,0.0,7,,,,,,,
"Cc1ccc(C)c(C(C)S(=O)(=O)c2c(Cl)ccc[n+]2[O-])c1 (centres unmarked) [Compound 124, 3-chloro-2-[[1-(2,5-dimethylphenyl)ethyl]sulfonyl]pyridine-N-oxide]",,0.0,,0.0,,,10.0,> 0.8,> 0.8,> 5,,
"CC(C)c1cc(CS(=O)(=O)c2cccc[n+]2[O-])c(C(C)C)cc1Br [Compound 63, 2-[[[2,5-bis(1-methylethyl)-4-bromophenyl]methyl]sulfonyl]pyridine-N-oxide]",,,,,,,,2.3,2.5,3.7,,
"O=[N+]([O-])c1cc(CS(=O)(=O)c2cccc[n+]2[O-])cc([N+](=O)[O-])c1 [Compound 65, 2-[[(3,5-dinitrophenyl)methyl]sulfonyl]pyridine-N-oxide]",,,,,,,,2.8,3.5,5,,
"Cc1ccc[n+]([O-])c1S(=O)(=O)Cc1c(Cl)cccc1Cl [Compound 139, 2-[[(2,6-dichlorophenyl)methyl]sulfonyl]-3-methyl-pyridine-N-oxide]",,0.0,,0.0,,,,> 20,> 20,43,,
"Cc1ccc[n+]([O-])c1[S+]([O-])Cc1c(Cl)cccc1Cl (centres unmarked) [Compound 138, 2-[[(2,6-dichlorophenyl)methyl]sulfinyl]-3-methyl-pyridine-N-oxide]",,0.0,,0.0,,,20.0,> 100,> 100,> 50,,
"Cc1ccc(CS(=O)(=O)c2cccc[n+]2[O-])cc1[N+](=O)[O-] [Compound 67, 2-[[(3-nitro-4-methylphenyl)methyl]sulfonyl]pyridine-N-oxide]",,,,,,,20.0,2.3,2.4,> 50,,
"Cc1ccc(C)c(CS(=O)(=O)c2ccccn2)c1 [Compound 150, 2-(2,5-dimethylbenzylsulfonyl)pyridine]",,,,,,,20.0,3.25,20,> 50,,
"CN1CCCC(CSc2cccc[n+]2[O-])C1 (centres unmarked) [Compound 156, 2-(N-methyl-3-piperidylmethylthio)pyridine-N-oxide]",16,,> 100,0.0,> 50,,0.0,,,,,
"Cc1ccc[n+]([O-])c1SCc1c(Cl)cccc1Cl [Compound 137, 2-[[(2,6-dichlorophenyl)methyl]thio]-3-methyl-pyridine-N-oxide]",> 20,0.0,> 20,0.0,28,,,,,,,
"COc1ccc(C=C(C#N)Sc2cccc[n+]2[O-])cc1 [Compound 159, 2-[1-cyano-2-(p-methoxyphenyl)ethenethio]pyridine-N-oxide]",> 20,0.0,> 20,25.0,10,,,,,,,
2-[(3-methoxy-4-benzyloxy)phenylmethylsulfonyl]pyridine-N-oxide [Compound 61],,0.0,,6.0,,14.0,,,,,>4,>4.0
ethyl-N-[4-(pyridyl-N-oxide-2-sulfonylmethyl)phenylcarbonyl]carbamate [Compound 60],,,,,,>50,0.0,,,,40.00,17.0
"O=[N+]([O-])c1ccc(CS(=O)(=O)c2cccc[n+]2[O-])c(Cl)c1 [Compound 69, 2-[[(2-chloro-4-nitrophenyl)methyl]sulfonyl]pyridine-N-oxide]",,,,,,,20.0,2.9,2.9,> 5,,
"N#CC(=Cc1ccccc1)Sc1cccc[n+]1[O-] [Compound 158, 2-(1-cyano-2-phenylethenethio) pyridine-N-oxide]",,0.0,,0.0,,3.6,,,,,>4,>4
"Cc1ccc(N)cc1C(C)S(=O)(=O)c1cccc[n+]1[O-] (centres unmarked) [Compound 1, 2-[[1-(5-amino-2-methylphenyl)ethyl]sulfonyl]pyridine-N-oxide]",,,,,,,0.0,20,41,> 50,,
"[O-][n+]1cccc(Cl)c1SCc1ccccc1 [Compound 132, 3-chloro-2-[(phenylmethyl)thio]pyridine-N-oxide]",2.4,,> 20,0.0,> 50,,0.0,,,,,
"CCC(C)(C)c1ccc(CS(=O)(=O)c2cccc[n+]2[O-])cc1 [Compound 40, 2-(4′-tert-pentylphenylmethylsulfonyl)pyridine-N-oxide]",,,,,,,,3.1,3.4,1.5,,
"Cc1ccc(C)c(C(Cl)S(=O)(=O)c2cccc(C)[n+]2[O-])c1 (centres unmarked) [Compound 73, 2-[(2,5-dimethylphenyl)chloromethylsulfonyl]-6-methylpyridine-N-oxide]",,,,0.0,,,40.0,2.8,> 100,> 20,,
"Cc1ccc(C)c(CSc2c(Cl)ccc[n+]2[O-])c1 [Compound 133, 3-chloro-2-[[(2,5-dimethylphenyl)methyl]thio]pyridine-N-oxide]",0.14,,> 20,0.0,25,,,,,,,
"[O-][n+]1cccc(Cl)c1[S+]([O-])Cc1ccccc1 (centres unmarked) [Compound 136, 3-chloro-2-[(phenylmethyl)sulfinyl]pyridine-N-oxide]",,,,0.0,,,,1.5,> 4,4.7,,
"Cc1ccc(C)c(CSc2ccccn2)c1 [Compound 148, 2-((2,5-dimethylphenyl)methylthio) pyridine]",> 20,,> 20,,0.4,,,,,,,
"COCC(c1cc(C)ccc1C)S(=O)(=O)c1ccccn1 (centres unmarked) [Compound 123, 2-[[1-(2,5-dimethylphenyl)-2-methoxyethyl]sulfonyl]pyridine]",,,,0.0,,,40.0,60,> 100,> 50,,
"Cc1ccc(C)c(C(Cl)S(=O)(=O)c2c(Cl)ccc[n+]2[O-])c1 (centres unmarked) [Compound 125, 3-chloro-2-[[chloro-(2,5-dimethylphenyl)methyl]sulfonyl]pyridine-N-oxide]",,0.0,,0.0,,,,> 4,> 4,31.5,,
